# Target: T1, Human complement C1s enzyme (Homo sapiens, UniProt P09871)
# T1 sequence (P09871 438-688 limits assumed): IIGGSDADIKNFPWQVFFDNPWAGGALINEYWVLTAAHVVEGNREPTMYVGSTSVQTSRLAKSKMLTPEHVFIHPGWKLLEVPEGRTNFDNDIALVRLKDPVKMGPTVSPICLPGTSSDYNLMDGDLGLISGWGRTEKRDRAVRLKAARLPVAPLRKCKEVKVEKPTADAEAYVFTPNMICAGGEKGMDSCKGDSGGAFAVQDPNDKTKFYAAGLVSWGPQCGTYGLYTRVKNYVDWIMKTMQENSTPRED
# T1 sequence (P09871 16-437 partner limits assumed): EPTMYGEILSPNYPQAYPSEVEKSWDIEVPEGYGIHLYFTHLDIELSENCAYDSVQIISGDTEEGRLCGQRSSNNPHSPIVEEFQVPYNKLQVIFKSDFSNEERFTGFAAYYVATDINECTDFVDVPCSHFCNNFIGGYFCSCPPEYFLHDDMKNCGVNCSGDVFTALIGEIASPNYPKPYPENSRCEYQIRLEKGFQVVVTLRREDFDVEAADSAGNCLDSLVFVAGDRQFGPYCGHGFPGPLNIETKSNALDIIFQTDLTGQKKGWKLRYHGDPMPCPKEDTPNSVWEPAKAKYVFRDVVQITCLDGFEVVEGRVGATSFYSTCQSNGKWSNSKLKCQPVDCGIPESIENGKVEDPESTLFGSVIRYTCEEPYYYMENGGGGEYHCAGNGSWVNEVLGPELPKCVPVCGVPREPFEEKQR
# Experiment: Human C1s enzyme assay
# Assay type: biochemical
# Conditions: human complement C1s enzyme 1.16 nM, substrate Z-L-Lys-SBzl 100 μM, 5 min preincubation; read-out: IC50 (Stars), C1s Inhibiting Activity
# In short: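 IC50 from nonlinear regression of reaction rates versus compound concentration, with rates taken from A405 recorded at 30 s intervals over 30 min after adding 100 μM Z-L-Lys-SBzl plus 100 μM DTNB. Enzyme was human C1s purified from serum, 1.16 nM, given 5 min compound preincubation at room temperature, pH 7.5 Tris/1 M NaCl.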
row,IC50 [nM],Structure (SMILES)
1,< 100,"O=C(NCC(=O)N1CCC[C@H]1C(=O)NCc1cc2cnccc2[nH]1)c1ccc2c(c1)Oc1ccccc1S2 [Compound 188, (S)-N-((1H-pyrrolo[3,2-c]pyridin-2-yl)methyl)-1-((phenoxathiine-3-carbonyl)glycyl)pyrrolidine-2-carboxamide]"
2,> 1000,"O=C(NCC(=O)N1C[C@H](OC(F)F)C[C@H]1C(=O)NCc1ccc2[nH]ncc2c1)c1ccc2c(c1)Oc1ccccc1S2 [Compound 192, (2S,4R)-N-((1H-indazol-5-yl)methyl)-4-(difluoromethoxy)-1-((phenoxathiine-3-carbonyl)glycyl)pyrrolidine-2-carboxamide]"
3,> 1000,"O=C(NCC(=O)N1C[C@H](OC(F)F)C[C@H]1C(=O)NCc1ccc2nc[nH]c2c1)c1ccc2c(c1)Oc1ccccc1S2 [Compound 193, (2S,4R)-N-((1H-benzo[d]imidazol-6-yl)methyl)-4-(difluoromethoxy)-1-((phenoxathiine-3-carbonyl)glycyl)pyrrolidine-2-carboxamide]"
4,> 1000,"O=C(NCC(=O)N1C[C@H](OC(F)F)C[C@H]1C(=O)NCc1ccc2[nH]ccc2c1)c1ccc2c(c1)Oc1ccccc1S2 [Compound 195, (2S,4R)-N-((1H-indol-5-yl)methyl)-4-(difluoromethoxy)-1-((phenoxathiine-3-carbonyl)glycyl)pyrrolidine-2-carboxamide]"
5,> 1000,"O=C(NCC(=O)N1C[C@H](OC(F)F)C[C@H]1C(=O)NCc1ccc2cc[nH]c2c1)c1ccc2c(c1)Oc1ccccc1S2 [Compound 196, (2S,4R)-N-((1H-indol-6-yl)methyl)-4-(difluoromethoxy)-1-((phenoxathiine-3-carbonyl)glycyl)pyrrolidine-2-carboxamide]"
6,> 1000,"O=C(NCC(=O)N1C[C@H](OC(F)F)C[C@H]1C(=O)NCc1ccc2c(c1)CCN2)c1ccc2c(c1)Oc1ccccc1S2 [Compound 197, (2S,4R)-4-(difluoromethoxy)-N-(indolin-5-ylmethyl)-1-((phenoxathiine-3-carbonyl)glycyl)pyrrolidine-2-carboxamide]"
7,> 1000,"O=C(NCC(=O)N1C[C@H](OC(F)F)C[C@H]1C(=O)NCc1ccc2c(c1)NCC2)c1ccc2c(c1)Oc1ccccc1S2 [Compound 198, (2S,4R)-4-(difluoromethoxy)-N-(indolin-6-ylmethyl)-1-((phenoxathiine-3-carbonyl)glycyl)pyrrolidine-2-carboxamide]"
8,> 1000,"O=C(NCC(=O)N1C[C@H](OC(F)F)C[C@H]1C(=O)NCc1ccc2cn[nH]c2c1)c1ccc2c(c1)Oc1ccccc1S2 [Compound 199, (2S,4R)-N-((1H-indazol-6-yl)methyl)-4-(difluoromethoxy)-1-((phenoxathiine-3-carbonyl)glycyl)pyrrolidine-2-carboxamide]"

# Second part, the molecule before the results:
row,Structure (SMILES),IC50 [nM]
1,"C[C@@H](NC(=O)[C@@H]1C[C@]2(Cc3nccs3)C[C@@H]2N1C(=O)CNC(=O)c1ccc2c(c1)Oc1ccccc1S2)c1cc2cnccc2[nH]1 [Compound 186, (1S,3S,5S)-N-((R)-1-(1H-pyrrolo[3,2-c]pyridin-2-yl)ethyl)-2-((phenoxathiine-3-carbonyl)glycyl)-5-(thiazol-2-ylmethyl)-2-azabicyclo[3.1.0]hexane-3-carboxamide]",< 100
2,"O=C(NCC(=O)N1C[C@@](F)(CF)C[C@H]1C(=O)NCc1cc2cnccc2[nH]1)c1ccc2oc3ccccc3c2c1 [Compound 187, (2S,4R)-N-((1H-pyrrolo[3,2-c]pyridin-2-yl)methyl)-1-((dibenzo[b,d]furan-2-carbonyl)glycyl)-4-fluoro-4-(fluoromethyl)pyrrolidine-2-carboxamide]",< 100
3,"C[C@@H](NC(=O)[C@@H]1C[C@@H](OC(F)F)CN1C(=O)CNC(=O)c1ccc(Oc2ccccc2)cc1)c1cc(B(O)O)cs1 [Compound 189, (5-((R)-1-((2S,4R)-4-(difluoromethoxy)-1-((4-phenoxybenzoyl)glycyl)pyrrolidine-2-carboxamido)ethyl)thiophen-3-yl)boronic acid]",> 1000
4,"C[C@@H](NC(=O)[C@@H]1CC2(CC2)CN1C(=O)CNC(=O)c1ccc2c(c1)Oc1ccccc1S2)c1cc2cnccc2[nH]1 [Compound 190, (S)-N-((R)-1-(1H-pyrrolo[3,2-c]pyridin-2-yl)ethyl)-5-((phenoxathiine-3-carbonyl)glycyl)-5-azaspiro[2.4]heptane-6-carboxamide]",< 100
5,"COC[C@@]12C[C@@H]1N(C(=O)CNC(=O)c1ccc3c(c1)Oc1ccccc1S3)[C@H](C(=O)N[C@H](C)c1cc3cnccc3[nH]1)C2 [Compound 191, (1S,3S,5R)-N-((R)-1-(1H-pyrrolo[3,2-c]pyridin-2-yl)ethyl)-5-(methoxymethyl)-2-((phenoxathiine-3-carbonyl)glycyl)-2-azabicyclo[3.1.0]hexane-3-carboxamide]",< 100
6,"C[C@@H](NC(=O)[C@@H]1C[C@]2(C)C[C@@H]2N1C(=O)CNC(=O)c1ccc2oc3ccccc3c2c1)c1cc2cnccc2[nH]1 [Compound 200, (1S,3S,5S)-N-((R)-1-(1H-pyrrolo[3,2-c]pyridin-2-yl)ethyl)-2-((dibenzo[b,d]furan-2-carbonyl)glycyl)-5-methyl-2-azabicyclo[3.1.0]hexane-3-carboxamide]",< 100
7,"COC[C@@]1(F)C[C@@H](C(=O)NCc2cc3cnccc3[nH]2)N(C(=O)CNC(=O)c2ccc3oc4ccccc4c3c2)C1 [Compound 201, (2S,4R)-N-((1H-pyrrolo[3,2-c]pyridin-2-yl)methyl)-1-((dibenzo[b,d]furan-2-carbonyl)glycyl)-4-fluoro-4-(methoxymethyl)pyrrolidine-2-carboxamide]",< 100
8,"CS(=O)(=O)[C@@H]1C[C@@H](C(=O)NCc2cc3cnccc3[nH]2)N(C(=O)CNC(=O)c2ccc3oc4ccccc4c3c2)C1 [Compound 202, (2S,4R)-N-((1H-pyrrolo[3,2-c]pyridin-2-yl)methyl)-1-((dibenzo[b,d]furan-2-carbonyl)glycyl)-4-(methylsulfonyl)pyrrolidine-2-carboxamide]",< 100
9,"C[C@@]12C[C@@H]1N(C(=O)CNC(=O)c1ccc3oc4ccccc4c3c1)[C@H](C(=O)NCc1cc3cnccc3[nH]1)C2 [Compound 203, (1S,3S,5S)-N-((1H-pyrrolo[3,2-c]pyridin-2-yl)methyl)-2-((dibenzo[b,d]furan-2-carbonyl)glycyl)-5-methyl-2-azabicyclo[3.1.0]hexane-3-carboxamide]",< 100
10,"C[C@@H](NC(=O)C1C[C@H](COCCCCCC(=O)O)CN1C(=O)CNC(=O)c1ccc2c(c1)Oc1ccccc1S2)c1cc2cnccc2[nH]1 (stereo partly drawn) [Compound 204, 6-(((3S)-5-(((R)-1-(1H-pyrrolo[3,2-c]pyridin-2-yl)ethyl)carbamoyl)-1-((phenoxathiine-3-carbonyl)glycyl)pyrrolidin-3-yl)methoxy)hexanoic acid]",< 100
11,"C[C@@H](NC(=O)[C@@H]1C[C@@H](OC(F)F)CN1C(=O)CNC(=O)c1ccc(Oc2ccc(F)cc2)cc1)c1cc2cnccc2s1 [Compound 205, (2S,4R)-4-(difluoromethoxy)-1-((4-(4-fluorophenoxy)benzoyl)glycyl)-N-((R)-1-(thieno[3,2-c]pyridin-2-yl)ethyl)pyrrolidine-2-carboxamide]",100 to 1000
12,"C[C@@H](NC(=O)[C@@H]1CC2(CN1C(=O)CNC(=O)c1ccc3c(c1)Oc1ccccc1S3)OCCO2)c1cc2cnccc2s1 [Compound 206, (S)-7-((phenoxathiine-3-carbonyl)glycyl)-N-((R)-1-(thieno[3,2-c]pyridin-2-yl)ethyl)-1,4-dioxa-7-azaspiro[4.4]nonane-8-carboxamide]",< 100

# From patent US20260062443A1 (ALEXION PHARMACEUTICALS, INC., priority 2022, published 2026)
